Experimental data as given in patent publication US11129835B2, “Methods and compositions for the inhibition of PIN1” (Beth Israel Deaconess Medical Center, Inc., priority 2012, dated 2021).
Square brackets hold non-standard residues; d marks the D form. Peptide text beside a SMILES is read from it. pT = C[C@@H](OP(=O)(O)O)[C@H](N)C(=O)O; 2Nal = N[C@@H](Cc1ccc2ccccc2c1)C(=O)O; Bta = N[C@@H](Cc1csc2ccccc12)C(=O)O; Pip = O=C(O)[C@@H]1CCCCN1

How the values were obtained:
Pin1 [1] = target: T1, Pin1 (Homo sapiens, UniProt Q13526); experiment: Pin1 fluorescence polarization competition assay with Tamra-probe (secondary); conditions: for Tamra Secondary Curve Class: Tamra-probe; for Emax: read-out: Tamra Secondary Efficacy
T1 sequence (Q13526 whole entry): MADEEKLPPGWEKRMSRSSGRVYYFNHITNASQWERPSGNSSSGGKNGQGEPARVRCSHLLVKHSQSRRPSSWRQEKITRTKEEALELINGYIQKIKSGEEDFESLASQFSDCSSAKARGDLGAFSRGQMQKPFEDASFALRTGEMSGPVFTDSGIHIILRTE
Experimental: An assay was developed for the identification of inhibitors of Pin1. […] Candidate compounds were screened in a concentration-titration series (e.g., 57 μM to 0.7 nM).
(§3) Pin1 (0.6 μM) was dispensed into black, solid 1536-well plates (32 rows by 48 columns) at 2 μL/well in Pin1 buffer (10 mM HEPES (pH 7.5), 10 mM NaCl, 0.01% Tween20, 1 mM DTT, and 1% glycerol). Next, 23 nL of compound or DMSO was delivered to each well using a pin tool (tip wash sequence: DMSO, IPA, MeOH, 3 s vacuum dry). Two μL of Pin1-1b-HiFluor488 peptide in buffer (10 mM HEPES (pH 7.5), 10 mM NaCl, 0.01% Tween20, 1 mM DTT, and 1% glycerol, 0.02 μM Pin1-1b-HiFluor488) or DMSO was then dispensed to each well using a pin tool (tip wash sequence: DMSO, IPA, MeOH, 3 s vacuum dry), and plates were incubated at room temperature for 10 min (Table 2). Each plate included controls with no candidate inhibitory compound (32 wells), with unlabeled Pin1-1c titration (3.5 mM to 0.020 mM in a 1:2 dilution series including 2 replicates per concentration; 32 wells), and without Pin1 (64 wells).
(§4) The fluorescence polarization signal of each well was measured on a ViewLux® plate reader using a 480/20 nm excitation filter and 540/25 nm S and P emission filters with a 20 second exposure with 2× binning (Table 2). Percent inhibitory activity was determined from corrected fluorescence polarization values.
(§5) Concentration-response curves were fitted to the signals arising from the resulting fluorescence polarization. The concentration-effect curves were then classified based on curve quality (r^2), response magnitude, and degree of measured activity. Compounds were subsequently categorized based on their curve class.
A further secondary assessment was accomplished by replacing the HiFluor-488-labeled probe with Tamra-probe, a red-shifted fluorophore.

Pin1 [2] = target: T1, Pin1; experiment: confirmatory Pin1 fluorescence polarization competition assay (Alexa488 reconfirmed); conditions: for Emax: read-out: Alexa488 Reconfirmed Efficacy; for Alexa488 Reconfirmed Curve Class: confirmatory retest;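 as to all read-outs here: Pin1 competition with a HiFluor488-labelled peptide probe, read as fluorescence polarization after 10 min at room temperature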
Experimental: (§6) The goal of this assay was to identify small-molecule inhibitors of Pin1 using a fluorescence polarization competition assay (FIG. 1). […] Candidate compounds were screened in a concentration-titration series (e.g., 57 μM to 0.7 nM).
as §3, §4, §5

Pin1 [3] = target: T1, Pin1; experiment: Pin1 fluorescence polarization competition assay, primary qHTS (HiFluor-488 / Alexa488 probe);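 also: Pin1 protein with fluorescent peptide probe, compound displacement read by fluorescence polarization, percent inhibition derived from corrected polarization values, concentration-response curves in 1536-well format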
Experimental: as §6, §3, §4, §5
Curves showing change polarized fluorescence may be categorized into 5 classes. Class 1 includes complete curves, having 2 asymptotes and an r^2 value of ≥0.9, with an efficacy of either >80% (class 1.1) or ≤80% (class 1.2). Class 1 curves may also be classified as noisy curves when efficacy is >80% and r^2<0.9 (class 1.3) or when efficacy is ≤80% and r^2<0.9 (class 1.4). Class 2 includes incomplete curves having 1 asymptote and an r^2 value of either >0.9 (subclass a) or <0.9 (subclass b), with an efficacy of either >80% (class 2.1) or ≤80% (class 2.2). Class 2 curves may also be classified as noisy curves when efficacy is >80% and r^2<0.9 (class 2.3) or when efficacy is ≤80% and r^2<0.9 (class 2.4). Class 3 includes single point activity curves having 1 asymptote and an efficacy >3 SD from the mean activity of the sample field at the highest tested concentration. […] A fifth class captures any curves not otherwise classified (FIG. 4).

MCF10A = experiment: cell viability, normal cell line; assay type: cell-based
Excerpt: (§1) This discrepancy between cell lines was correlated with the RAs' ability to suppress Pin1 expression. Pin1 level was decreased by treatment of RAs in drugs-responsive SKBR3 and T47D, but not in drugs-irresponsive normal cells, MCF10A, in which Pin1 target protein, cyclin D1, served as biomarker of in vivo Pin1 activity.

SKBR3 = experiment: cell viability of breast cancer cell lines; assay type: cell-based
Excerpt: as §1

T47D = experiment: cell viability of breast cancer cell lines; assay type: cell-based
Excerpt: as §1

full length Pin1 = target: T2, full length Pin1 (Homo sapiens, UniProt Q13526); experiment: single-step fluorescence polarization-based displacement assay (FP-HTS), 384-well, HF488 probe; assay type: binding; conditions: for Pin1 inhibition in the FP assay: cis-RA compared with trans-RA
T2 construct: FP-HTS in a 384-well plate format with full length Pin1
T2 sequence (Q13526 whole entry): as above
Experimental: A high-throughput screen for identifying Pin1 inhibitors was developed using a single-step fluorescence polarization-based displacement assay (FP-HTS).
The FP-HTS with a 5 nM probe and 200 nM Pin1 was used to conduct a pilot screen on a selected set of chemical libraries.
(§2) The anti-cancer effect of RAs was examined to determine whether it depends on RAR in the breast cancer cells.

breast cancer cells = experiment: RARa knockdown rescue of cis-RA-mediated cell death; assay type: cell-based
Excerpt: as §2

Pin1 [4] = target: T1, Pin1; experiment: PPIase assay; assay type: biochemical
Excerpt: The anti-cancer effect of RAs was examined to determine whether it depends on RAR in the breast cancer cells. […] In the PPIase assay, Pin1 activity was blocked by either cis- or trans-RA in a dose-dependent manner.

Pin1 and DAPK1 = Pin1 and DAPK1 (Homo sapiens, UniProt Q13526); experiment: association between Pin1 and DAPK1; assay type: binding
Sequence of Pin1 and DAPK1 (Q13526 whole entry): as above

[5] = test system: Pin1 K63A, S67E, R68/69A, H59A or S71E; experiment: trans-RA binding to Pin1 point mutants
[6] = test system: mouse embryonic fibroblast (WT MEF, Pin1 KO MEF); experiment: trans-RA-mediated cell viability in WT and Pin1 knockout MEF; assay type: cell-based
Excerpt: To further confirm this premise, wild-type mouse embryonic fibroblast (WT MEF) and Pin1 knockout MEF (Pin1 KO MEF) were used to test trans-RA-mediated cell viability.

[7] = Alexa488 Primary Potency, primary qHTS
[8] = Average HTS Potency, average over Alexa488 primary, Alexa488 reconfirmed and Tamra secondary assays
[9] = read-out: Alexa488 Primary Efficacy

IC50 (Pin1 [1])	Tamra Secondary Curve Class (Pin1 [1])	Emax (Pin1 [1])	IC50 (Pin1 [2])	Emax (Pin1 [2])	IC50 (Pin1 [3]; [7])	IC50 (Pin1 [3]; [8])	Emax (Pin1 [3]; [9])	Emax (Pin1 [3]; read-out: Average HTS Efficacy)	Alexa488 Reconfirmed Curve Class (Pin1 [2])	Alexa488 Primary Curve Class (Pin1 [3]; primary qHTS)	Compound	other results
11 µM	2.2 (≤80% (class 2.2))	75%	9 µM	112%	38 µM	19 µM	26%	71%	–	–	O=C(NC(Cc1ccccc1)C(=O)O)/C(=C\c1ccco1)NC(=O)c1ccccc1 (stereo not shown) [Compound 35]	–
19 µM	2.2 (≤80% (class 2.2))	76%	14 µM	62%	11 µM	15 µM	101%	80%	2.2 (≤80% (class 2.2))	–	CCCCOc1ccc(C(=O)N/C(=C/c2cccc([N+](=O)[O-])c2)C(=O)O)cc1 [Compound 36]	–
12 µM	2.2 (≤80% (class 2.2))	58%	15 µM	63%	85 µM	37 µM	19%	47%	2.2 (≤80% (class 2.2))	1.2 (≤80% (class 1.2))	CC(C)COc1ccc(C(=O)N/C(=C\c2cccc([N+](=O)[O-])c2)C(=O)O)cc1 [Compound 37]	–
24 µM	2.2 (≤80% (class 2.2))	96%	10 µM	99%	25 µM	20 µM	55%	83%	–	–	COc1ccc(NS(=O)(=O)c2ccc3c(c2)[C@H]2C=CC[C@H]2[C@@H](c2ccc(C(=O)O)cc2)N3)cc1 [Compound 40]	–
19 µM	2.2 (≤80% (class 2.2))	80%	19 µM	62%	30 µM	23 µM	88%	77%	2.2 (≤80% (class 2.2))	2.2 (≤80% (class 2.2))	O=C(O)c1cc(Cl)c2c(c1)[C@@H]1C=CC[C@@H]1[C@H](c1ccc(S(=O)(=O)N3CCOCC3)cc1)N2 [Compound 41]	–
24 µM	2.2 (≤80% (class 2.2))	73%	27 µM	82%	19 µM	23 µM	73%	76%	2.2 (≤80% (class 2.2))	1.2 (≤80% (class 1.2))	COC(=O)COc1ccc(C2Nc3c(Cl)ccc(C(=O)O)c3C3C=CCC32)cc1 (stereo not shown) [Compound 42]	–
24 µM	2.2 (≤80% (class 2.2))	83%	12 µM	63%	36 µM	24 µM	90%	79%	2.2 (≤80% (class 2.2))	2.2 (≤80% (class 2.2))	O=C(O)c1[nH]c2ccccc2c1C(c1cc(Cl)cc([N+](=O)[O-])c1O)c1c(C(=O)O)[nH]c2ccccc12 [Compound 44]	–
21 µM	2.2 (≤80% (class 2.2))	78%	27 µM	84%	43 µM	30 µM	82%	81%	2.2 (≤80% (class 2.2))	2.2 (≤80% (class 2.2))	C=CCOc1ccc(C(c2c(C(=O)O)[nH]c3ccccc23)c2c(C(=O)O)[nH]c3ccccc23)cc1 [Compound 46]	–
21 µM	–	91%	19 µM	84%	79 µM	40 µM	26%	67%	2.2 (≤80% (class 2.2))	1.2 (≤80% (class 1.2))	COc1cc(C(c2c(C(=O)O)[nH]c3ccccc23)c2c(C(=O)O)[nH]c3ccccc23)ccc1OCc1ccccc1 [Compound 47]	–
–	–	–	–	–	–	–	–	–	–	–	CC1=C(/C=C/C(C)=C/C=C/C(C)=C\C(=O)O)C(C)(C)CCC1 [cis-RA, 13-cis-retinoic acid]	cell viability (MCF10A): remained unaffected; IC50, cell viability (SKBR3): nano-molar range; IC50, cell viability (T47D): nano-molar range; pilot screen hit ranking by Z-score (full length Pin1; 5 nM probe and 200 nM Pin1): top inhibitory chemical; Pin1 inhibition in the FP assay (full length Pin1): eventually catch up with trans-RA in the long-term incubation with Pin1; cell death after RARa knockdown (breast cancer cells): only partially rescue; Pin1 activity in the PPIase assay (Pin1 [4]): blocked; association between Pin1 and DAPK1 (Pin1 and DAPK1): blocked the association between Pin1 and DAPK1 in a dose-dependent manner
–	–	–	–	–	–	–	–	–	–	–	C[C@@H](OP(=O)(O)O)[C@H](NC(=O)[C@@H](N)Cc1csc2ccccc12)C(=O)N1CCCC[C@H]1C(=O)N[C@@H](Cc1ccc2ccccc2c1)C(=O)O [pTide, Bth-L-phos.Thr-Pip-Nal] (H-[Bta][pT][Pip][2Nal]-OH; N-terminus and C-terminus assumed)	displacement of HF488 probe from Pin1 (full length Pin1): displaced HF488 probe from Pin1; Kd (full length Pin1; four residue core structure (pTide) of the HF488 fluorescent probes): 0.258 µM
–	–	–	–	–	–	–	–	–	–	–	CC1=C(/C=C/C(C)=C/C=C/C(C)=C/C(=O)O)C(C)(C)CCC1 [trans-RA, all-trans retinoic acid]	cell viability (MCF10A): remained unaffected; IC50, cell viability (SKBR3): nano-molar range; IC50, cell viability (T47D): nano-molar range; binding to Pin1 point mutants [5]: completely or significantly abolished; Pin1 inhibition in the FP assay (full length Pin1): even more prominent Pin1 inhibition than cis-RA; cell viability, Pin1 KO MEF versus WT MEF [6]: Pin1 KO MEF was more resistant to trans-RA than WT MEF; cell viability, Pin1 KO MEF re-expressing Pin1 ([6]; stably expressing WT Pin1 or W34 K63A Pin1 mutant): Pin1 KO MEF stably expressing WT Pin1, but not W34 K63A Pin1 mutant, enabled cells to re-sensitize trans-RA; Pin1 activity in the PPIase assay (Pin1 [4]): blocked; association between Pin1 and DAPK1 (Pin1 and DAPK1): blocked the association between Pin1 and DAPK1 in a dose-dependent manner, with trans being more potent
